Test results taken from patent US20240336610A1, “3CL PROTEASE SMALL-MOLECULE INHIBITOR FOR TREATING OR PREVENTING CORONAVIRUS INFECTION, AND USE THEREOF” (THE GLOBAL HEALTH DRUG DISCOVERY INSTITUTE, priority 2021, published 2024).

Biological target: SARS-CoV-2 main protease (3CLpro) (Severe acute respiratory syndrome coronavirus 2 (2019-nCoV) (SARS-CoV-2), UniProt P0DTD1)
Assay: Enzyme activity test
Assay type: biochemical
Conditions: 200 nM recombinant SARS-CoV-2 main protease, 15 μM fluorescent substrate, pH 7.3

SMILES | IC50 [nM]
COC(=O)c1cncc(C(C#N)NC(=O)[C@@H]2[C@@H]3[C@H](CN2C(=O)[C@@H](NC(C)=O)C(C)(C)C)C3(C)C)c1 (stereo in doubt) [GDI-034, 5-((1R,2S,5S)-3-((S)-2-acetamido-3,3-dimethylbutyryl)-6,6-dimethyl-3-azabicyclo[3.1.0]hexane-2-carboxamido)(cyano)methyl)methyl nicotinate] | 62
CC(=O)N[C@H](C(=O)N1C[C@H]2[C@@H]([C@H]1C(=O)NC(C#N)c1cncc(Br)c1C)C2(C)C)C(C)(C)C (stereo partly drawn) [GDI-009, (1R,2S,5S)-3-((S)-2-acetamido-3,3-dimethylbutyryl)-N-((5-bromo-4-methylpyridin-3-yl)(cyano)methyl)-6,6-dimethyl-3-azabicycl o[3.1.0]hexane-2-carboxamide] | 53
CC(C)(C)[C@H](NC(=O)C(F)(F)F)C(=O)N1C[C@H]2[C@@H]([C@H]1C(=O)NC(C#N)c1cncc(C(F)(F)F)c1)C2(C)C (stereo partly drawn) [GDI-012, (1R,2S,5S)-N-(cyano (5-(trifluoromethyl)pyridin-3-yl)methyl)-3-((S)-3,3-dimethyl-2-(2,2,2-trifluoroacetylamino)butyryl)-6,6-dimethyl-3-azabicyclo[3.1.0]hexane-2-carboxamide] | 24
CC1(C)[C@@H]2[C@@H](C(=O)NC(C#N)c3cncc(Br)c3)N(C(=O)OCc3ccccc3Cl)C[C@@H]21 (stereo partly drawn) [GDI-013, 2-chlorobenzyl((1R,2S,5S)-2-((5-bromopyridin-3-yl)(cyano)methyl)carbamoyl)-6,6-dimethyl-3-azabicyclo[3.1.0]hexane-3-carb oxylate] | 340
CC(C)(C)[C@H](NC(=O)C(F)(F)F)C(=O)N1C[C@H]2[C@@H]([C@H]1C(=O)NC(C#N)c1cncc(C#N)c1)C2(C)C (stereo partly drawn) [GDI-014, (1R,2S,5S)-N-(cyano(5-cyanopyridin-3-yl)methyl)-3-((S)-3,3-dimethyl-2-(2,2,2-trifluoroacetylamino)butyryl)-6,6-dimethyl-3-azabicycl o[3.1.0]hexane-2-carboxamide] | 46
CC(=O)N[C@H](C(=O)N1C[C@H]2[C@@H]([C@H]1C(=O)NC(C#N)c1cncc(-c3nc(C)no3)c1)C2(C)C)C(C)(C)C (stereo partly drawn) [GDI-015, (1R,2S,5S)-3-((S)-2-acetamido-3,3-dimethylbutyryl)-N-(cyano(5-(3-methyl-1,2,4-oxadiazol-5-yl)pyridin-3-yl)methyl)-6,6-dimethy 1-3-azabicyclo[3.1.0]hexane-2-carboxamide] | 120
CNC(=O)c1cncc(C(C#N)NC(=O)[C@@H]2[C@@H]3[C@H](CN2C(=O)[C@@H](NC(C)=O)C(C)(C)C)C3(C)C)c1 (stereo partly drawn) [GDI-018, (1R,2S,5S)-3-((S)-2-acetamido-3,3-dimethylbutyryl)-N(cyano(5-(methylcarbamoyl)pyridin-3-yl)methyl)-6,6-dimethyl-3-azabicycl o[3.1.0]hexane-2-carboxamide] | 110
CN(C)c1ccc(S(=O)(=O)N[C@H](C(=O)N2C[C@H]3[C@@H]([C@H]2C(=O)NC(C#N)c2cncc(C(F)(F)F)c2)C3(C)C)C(C)(C)C)cc1 (stereo partly drawn) [GDI-019, (1R,2S,5S)-N-(cyano(5-(trifluoromethyl)pyridin-3-yl)methyl)-3-((S)-2-((4-(dimethylamino)phenyl)sulfonamido)-3,3-dimethylbutanoyl) -6,6-dimethyl-3-azabicyclo[3.1.0]hexane-2-carboxamide] | 22
CC(=O)N[C@H](C(=O)N1C[C@H]2[C@@H]([C@H]1C(=O)NC(C#N)c1cnc3[nH]ccc3c1)C2(C)C)C(C)(C)C (stereo partly drawn) [GDI-020, (1R,2S,5S)-3-((S)-2-acetamido-3,3-dimethylbutyryl)-N(cyano(1H-pyrrole[2,3-b]pyridin-5-yl)methyl)-6,6-dimethyl-3-azabicyclo[3. 1.0]hexane-2-carboxamide] | 19
Cc1ccc(S(=O)(=O)N[C@H](C(=O)N2C[C@H]3[C@@H]([C@H]2C(=O)NC(C#N)c2cncc(Br)c2)C3(C)C)C(C)(C)C)cc1 (stereo partly drawn) [GDI-021, (1R,2S,5S)-N-((5-bromopyridin-3-yl) (cyano)methyl)-3-((S)-3,3-dimethyl-2-((4-methylphenyl)sulfonamido)butanoyl)-6,6-dimethyl-3-azabicyclo[3.1.0]hexane-2-carboxamide] | 19
Cc1ccc(S(=O)(=O)N[C@H](C(=O)N2C[C@H]3[C@@H]([C@H]2C(=O)NC(C#N)c2cncc4ccccc24)C3(C)C)C(C)(C)C)cc1 (stereo partly drawn) [GDI-023, (1R,2S,5S)-N-(cyano(isoquinolin-4-yl)methyl)-3-((S)-3,3-dimethyl-2-((4-methylphenyl)sulfonamido)butanoyl)-6,6-dimethyl-3-azabic yclo[3.1.0]hexane-2-carboxamide] | 15
CC(=O)N[C@H](C(=O)N1C[C@H]2[C@@H]([C@H]1C(=O)NC(C#N)c1c[nH]c3ccccc13)C2(C)C)C(C)(C)C (stereo partly drawn) [GDI-024, (1R,2S,5S)-3-((S)-2-acetamido-3,3-dimethylbutyryl)-N-(cyano(1H-indol-3-yl)methyl)-6,6-dimethyl-3-azabicyclo[3.1.0]hexane-2-c arboxamide] | 66300
CC(C)(C)[C@H](NS(=O)(=O)C(F)(F)F)C(=O)N1C[C@H]2[C@@H]([C@H]1C(=O)NC(C#N)c1cncc(Br)c1)C2(C)C (stereo partly drawn) [GDI-025, (1R,2S,5S)-N-((5-bromopyridin-3-yl) (cyano)methyl)-3-((S)-3,3-dimethyl-2-((trifluoromethyl)sulfonamido)butanoyl)-6,6-dimethyl-3-azabicyclo[3.1.0]hexane-2-carboxamide] | 19
CN(C)c1ccc(S(=O)(=O)N[C@H](C(=O)N2C[C@H]3[C@@H]([C@H]2C(=O)NC(C#N)c2cncc(Br)c2)C3(C)C)C(C)(C)C)cc1 (stereo partly drawn) [GDI-026, (1R,2S,5S)-N-((5-bromopyridin-3-yl) (cyano)methyl)-3-((S)-2-((4-(dimethylamino)phenyl)sulfonamido)-3,3-dimethylbutanoyl)-6,6-d imethyl-3-azabicyclo[3.1.0]hexane-2-carboxamide] | 17
CN(C)c1ccc(S(=O)(=O)N[C@H](C(=O)N2C[C@H]3[C@@H]([C@H]2C(=O)NC(C#N)c2cncc4ccccc24)C3(C)C)C(C)(C)C)cc1 (stereo partly drawn) [GDI-027, (1R,2S,5S)-N-(cyano(isoquinolin-4-yl)methyl)-3-((S)-2-((4-(dimethylamino)phenyl)sulfonamido)-3,3-dimethylbutyryl)-6,6-dimethyl-3-azabicyclo[3.1.0]hexane-2-carboxamide] | 7.6
CC(=O)N[C@H](C(=O)N1C[C@H]2[C@@H]([C@H]1C(=O)NC(C#N)c1cncc(-n3cccn3)c1)C2(C)C)C(C)(C)C (stereo partly drawn) [GDI-028, (1R,2S,5S)-N-((5-(1H-pyrazol-1-yl)pyridin-3-yl)(cyano)methyl)-3-((S)-2-acetylamino-3,3-dimethylbutanoyl)-6,6-dimethyl-3-azabi cyclo[3.1.0]hexane-2-carboxamide] | 2.4
CC(C)(C)[C@H](NS(=O)(=O)C(F)(F)F)C(=O)N1C[C@H]2[C@@H]([C@H]1C(=O)NC(C#N)c1cncc3ccccc13)C2(C)C (stereo partly drawn) [GDI-029, (1R,2S,5S)-N-(cyano(isoquinolin-4-yl)methyl)-3-((S)-3,3-dimethyl-2-((trifluoromethyl)sulfonamido)butanoyl)-6,6-dimethyl-3-azabic yclo[3.1.0]hexane-2-carboxamide] | 23
CC(=O)N[C@H](C(=O)N1C[C@H]2[C@@H]([C@H]1C(=O)NC(C#N)c1cncc(-c3cnn(C)c3)c1)C2(C)C)C(C)(C)C (stereo partly drawn) [GDI-030, (1R,2S,5S)-3-((S)-2-acetamido-3,3-dimethylbutyryl)-N-(cyano(5-(1-methyl-1H-pyrazol-4-yl)pyridin-3-yl)methyl)-6,6-dimethyl-3-azabicyclo[3.1.0]hexane-2-carboxamide] | 18
CC(=O)N[C@H](C(=O)N1C[C@H]2[C@@H]([C@H]1C(=O)NC(C#N)c1cncc(-c3nc(C(C)C)no3)c1)C2(C)C)C(C)(C)C (stereo partly drawn) [GDI-031, (1R,2S,5S)-3-((S)-2-acetamido-3,3-dimethylbutyryl)-N-(cyano(5-(3-isopropyl-1,2,4-oxadiazol-5-yl)pyridin-3-yl)methyl)-6,6-dimet hyl-3-azabicyclo[3.1.0]hexane-2-carboxamide] | 100
CC(=O)N[C@H](C(=O)N1C[C@H]2[C@@H]([C@H]1C(=O)NC(C#N)c1cncc(-c3cn[nH]c3)c1)C2(C)C)C(C)(C)C (stereo partly drawn) [GDI-032, (1R,2S,5S)-N-((5-(1H-pyrazol-4-yl)pyridin-3-yl)(cyano)methyl)-3-((S)-2-acetylamino-3,3-dimethylbutanoyl)-6,6-dimethyl-3-azabi cyclo[3.1.0]hexane-2-carboxamide] | 28
CC(=O)N[C@H](C(=O)N1C[C@H]2[C@@H]([C@H]1C(=O)NC(C#N)c1cncc3c(F)cccc13)C2(C)C)C(C)(C)C (stereo partly drawn) [GDI-033, (1R,2S,5S)-3-((S)-2-acetamido-3,3-dimethylbutyryl)-N-(cyano(8-fluoroisoquinolin-4-yl)methyl)-6,6-dimethyl-3-azabicyclo[3.1.0]h exane-2-carboxamide] | 56
CC(=O)N[C@H](C(=O)N1C[C@H]2[C@@H]([C@H]1C(=O)NC(C#N)c1cncc(-c3ccn[nH]3)c1)C2(C)C)C(C)(C)C (stereo partly drawn) [GDI-035, (1R,2S,5S)-N-((5-(1H-pyrazol-5-yl)pyridin-3-yl)(cyano)methyl)-3-((S)-2-acetylamino-3,3-dimethylbutanoyl)-6,6-dimethyl-3-azabi cyclo[3.1.0]hexane-2-carboxamide] | 17

Tested on: not listed separately
Assay: Oral pharmacokinetics in rats
Assay type: in vivo
Conditions: rat, blood, male SD rats, 15 mg/kg
Method: Test Example 2: Measurement of Oral Pharmacokinetics in Rats
Male SD rats were orally administered with 15 mg/kg of the compound in the examples of the present disclosure, and blood samples were collected at 0.083, 0.25, 0.5, 1, 2, 4, and 8 hours respectively. After the samples were treated with anticoagulant EDTA-K2 and acetonitrile and centrifuged, a drug concentration analysis was conducted using LC/MS/MS.

SMILES | AUC(0-inf) [ng·h/mL] | AUC(0-t) [ng·h/mL] | Cmax [ng/mL] | half-life [h]
CC(C)(C)[C@H](NC(=O)C(F)(F)F)C(=O)N1C[C@H]2[C@@H]([C@H]1C(=O)NC(C#N)c1cncc(C(F)(F)F)c1)C2(C)C (stereo partly drawn) [GDI-012, (1R,2S,5S)-N-(cyano (5-(trifluoromethyl)pyridin-3-yl)methyl)-3-((S)-3,3-dimethyl-2-(2,2,2-trifluoroacetylamino)butyryl)-6,6-dimethyl-3-azabicyclo[3.1.0]hexane-2-carboxamide] | 7140 | 7080 | 2120 | 1.92
CC(C)(C)[C@H](NC(=O)C(F)(F)F)C(=O)N1C[C@H]2[C@@H]([C@H]1C(=O)NC(C#N)c1cncc(C#N)c1)C2(C)C (stereo partly drawn) [GDI-014, (1R,2S,5S)-N-(cyano(5-cyanopyridin-3-yl)methyl)-3-((S)-3,3-dimethyl-2-(2,2,2-trifluoroacetylamino)butyryl)-6,6-dimethyl-3-azabicycl o[3.1.0]hexane-2-carboxamide] | 7820 | 7800 | 5000 | 0.832
